Assay results taken from publication PMC11066877, “Development and Characterization of Novel FAP-Targeted Theranostic Pairs: A Bench-to-Bedside Study” (Research, 2023).

Columns and labels:
[1] = Ex vivo biodistribution after imaging, HT-1080 tumor models; format: in vivo, mice; settings: nude (thymus-free), mouse, intravenous, 3 MBq, total radioactivity, 4.5 h p.i.
Experimental: A human pancreatic cancer cell line BxPC-3 and a murine pancreatic cancer cell Panc-02 were obtained from the American Type Culture Collection. The pancreatic cancer cell line T3M-4 was purchased by MeisenCTCC (Zhejiang, China). BxPC-3 and T3M-4 cell lines were grown in RPMI 1640 medium (Shanghai BasalMedia Technologies Co., LTD.) containing 10% FBS (GE Healthcare, Chicago, IL, USA) and 1% penicillin–streptomycin solution (Invitrogen). To culture the Panc-02 cell line, a medium called Dulbecco’s modified Eagle medium from Shanghai BasalMedia Technologies Co., LTD. was used, which consisted of 10% FBS. The cell line HT-1080 was grown in MEM medium (Shanghai BasalMedia Technologies Co., LTD.) supplemented with 10% FBS, 1% penicillin-streptomycin solution, and 1% nonessential amino acids (NEAA-11140050; Gibco). […]
After imaging collection and image reconstruction, samples from euthanized experimental mice, including blood and multiple significant organs, were harvested and weighed. The radioactivity in each collected tissue was counted using an automated gamma counter (Wizard 2480, PerkinElmer) and the accumulation of radioactivity in different tissues and organs was quantified and expressed as %ID/g (mean ± SD). […] At the end of each probe imaging and radioactivity counting study, tumor tissues were fixed in paraformaldehyde tissue fixative. […]

[2] = microPET/CT imaging, ROI analysis, BxPC-3 tumor models; format: in vivo, mice; settings: nude (thymus-free), mouse, intravenous, 3 MBq, 4 h p.i.
Experimental: (§1) A human pancreatic cancer cell line BxPC-3 and a murine pancreatic cancer cell Panc-02 were obtained from the American Type Culture Collection. The pancreatic cancer cell line T3M-4 was purchased by MeisenCTCC (Zhejiang, China). BxPC-3 and T3M-4 cell lines were grown in RPMI 1640 medium (Shanghai BasalMedia Technologies Co., LTD.) containing 10% FBS (GE Healthcare, Chicago, IL, USA) and 1% penicillin–streptomycin solution (Invitrogen). To culture the Panc-02 cell line, a medium called Dulbecco’s modified Eagle medium from Shanghai BasalMedia Technologies Co., LTD. was used, which consisted of 10% FBS. The cell line HT-1080 was grown in MEM medium (Shanghai BasalMedia Technologies Co., LTD.) supplemented with 10% FBS, 1% penicillin-streptomycin solution, and 1% nonessential amino acids (NEAA-11140050; Gibco). A human fibrosarcoma cell line was stably transfected with FAP (HT1080-FAP) and cultured, as we previously described. All cell lines were cultured in a humid incubator with 5% CO2 at a temperature of 37 °C. Approval was granted by the Institutional Animal Care and Use Committee (Renji Hospital, School of Medicine, Shanghai Jiao Tong University) for all experimental protocols and procedures related to animal care. Panc-02 cells were implanted by subcutaneous injection of 5 × 10^6 tumor cells suspended in 100 μl PBS and matrigel matrix (Corning) with equal volume into the upper limb flank of C57BL/6 mice (Shanghai Sheng Chang Biotechnology Co., Ltd.). Four- to 6-week-old thymus-free nude mice (GemPharmatech) were subcutaneously inoculated with BxPC-3, T3M-4, HT-1080, and HT1080-FAP cells (5 × 10^6 in 100 μl of PBS mixing with 100 μl matrigel matrix) in the right shoulder. […]
(§2) MicroPET imaging was performed on isoflurane-anesthetized mice injected intravenously via the lateral tail vein with around 3 MBq (2.5 nmol) of the radioligand at certain times. […] The information was analyzed using OsiriX Lite software (Pixmeo SARL) and Inveon Research Workplace (Siemens Preclinical Solutions). […]

[3] = microPET/CT imaging, ROI analysis, HT-1080 tumor models; format: in vivo, mice; settings: nude (thymus-free), mouse, intravenous, 3 MBq, 4 h p.i.
Experimental: as §1, §2

[4] = microPET/CT imaging, ROI analysis, HT1080-FAP tumor models; format: in vivo, mice; settings: nude (thymus-free), mouse, intravenous, 3 MBq, HT1080-FAP tumor
Experimental: (§3) A human pancreatic cancer cell line BxPC-3 and a murine pancreatic cancer cell Panc-02 were obtained from the American Type Culture Collection. The pancreatic cancer cell line T3M-4 was purchased by MeisenCTCC (Zhejiang, China). BxPC-3 and T3M-4 cell lines were grown in RPMI 1640 medium (Shanghai BasalMedia Technologies Co., LTD.) containing 10% FBS (GE Healthcare, Chicago, IL, USA) and 1% penicillin–streptomycin solution (Invitrogen). To culture the Panc-02 cell line, a medium called Dulbecco’s modified Eagle medium from Shanghai BasalMedia Technologies Co., LTD. was used, which consisted of 10% FBS. The cell line HT-1080 was grown in MEM medium (Shanghai BasalMedia Technologies Co., LTD.) supplemented with 10% FBS, 1% penicillin-streptomycin solution, and 1% nonessential amino acids (NEAA-11140050; Gibco). A human fibrosarcoma cell line was stably transfected with FAP (HT1080-FAP) and cultured, as we previously described. All cell lines were cultured in a humid incubator with 5% CO2 at a temperature of 37 °C. Approval was granted by the Institutional Animal Care and Use Committee (Renji Hospital, School of Medicine, Shanghai Jiao Tong University) for all experimental protocols and procedures related to animal care. Panc-02 cells were implanted by subcutaneous injection of 5 × 10^6 tumor cells suspended in 100 μl PBS and matrigel matrix (Corning) with equal volume into the upper limb flank of C57BL/6 mice (Shanghai Sheng Chang Biotechnology Co., Ltd.). Four- to 6-week-old thymus-free nude mice (GemPharmatech) were subcutaneously inoculated with BxPC-3, T3M-4, HT-1080, and HT1080-FAP cells (5 × 10^6 in 100 μl of PBS mixing with 100 μl matrigel matrix) in the right shoulder. Follow-up microPET/CT imaging and ex vivo biodistribution experiments were performed when the tumor diameter reached 8 to 9 mm.
MicroPET imaging was performed on isoflurane-anesthetized mice injected intravenously via the lateral tail vein with around 3 MBq (2.5 nmol) of the radioligand at certain times. Regarding the FD1 blocking group, an excessive amount of unlabeled FD1 (200-fold) was simultaneously injected with [^68Ga]Ga-DOTA-FD1 into the tail vein of another batch of mice. Images were acquired using an IRIS PET/CT system (Inviscan Imaging Systems). PET data were reconstructed using a nonscatter-corrected 3D-ordered subset expectation […]/maximum a posteriori (OSEM3D/MAP) algorithm. The information was analyzed using OsiriX Lite software (Pixmeo SARL) and Inveon Research Workplace (Siemens Preclinical Solutions). The percentage of injected dose per gram of tissue (%ID/g, mean ± SD) was utilized to present the distribution of tracers in the ROI, encompassing tumor, heart, lung, liver, kidney, and muscle.

[5] = Ex vivo biodistribution after imaging, HT1080-FAP tumor models; format: in vivo, mice; settings: nude (thymus-free), mouse, intravenous, 3 MBq, total radioactivity; HT1080-FAP tumor, 4.5 h p.i.
Experimental: as §3
After imaging collection and image reconstruction, samples from euthanized experimental mice, including blood and multiple significant organs, were harvested and weighed. The radioactivity in each collected tissue was counted using an automated gamma counter (Wizard 2480, PerkinElmer) and the accumulation of radioactivity in different tissues and organs was quantified and expressed as %ID/g (mean ± SD). [^177Lu]Lu-DOTA-FD1 (~1.11 MBq, n = 3), [^177Lu]Lu-DOTA-FD2 (~1.11 MBq, n = 3), and [^177Lu]Lu-DOTA-FD3 (~1.11 MBq, n = 3) were injected into the tail vein of free nude mice at 6 h, 24 h, and 24 h for ex vivo biodistribution to verify the circulation time of the 3 probes in vivo. Biodistribution data from tumor-bearing mice injected with [^177Lu]Lu-DOTA-FD3 at 45 h (~1.11 MBq, n = 4) and 90 h (~1.11 MBq, n = 3) validated the prolonged enrichment of the probe at the tumor site. At the end of each probe imaging and radioactivity counting study, tumor tissues were fixed in paraformaldehyde tissue fixative. Briefly, sections of 10 μm were cut and stained for H&E following the standard protocols. IHC staining with a FAP antibody (ab227703, Abcam) was performed only on tumor tissues following accepted techniques.

[6] = microPET/CT imaging, ROI analysis, Panc-02 tumor models; format: in vivo, mice; settings: C57BL/6, mouse, intravenous, 3 MBq, 4 h p.i.
Experimental: as §1, §2

[7] = biological target: T1, recombinant human FAP protein (Homo sapiens, UniProt Q12884); assay: SPR binding to immobilized recombinant human FAP protein
T1 construct: purchased ACRO Biosystems FAP-H5244
T1 sequence (Q12884 1-760): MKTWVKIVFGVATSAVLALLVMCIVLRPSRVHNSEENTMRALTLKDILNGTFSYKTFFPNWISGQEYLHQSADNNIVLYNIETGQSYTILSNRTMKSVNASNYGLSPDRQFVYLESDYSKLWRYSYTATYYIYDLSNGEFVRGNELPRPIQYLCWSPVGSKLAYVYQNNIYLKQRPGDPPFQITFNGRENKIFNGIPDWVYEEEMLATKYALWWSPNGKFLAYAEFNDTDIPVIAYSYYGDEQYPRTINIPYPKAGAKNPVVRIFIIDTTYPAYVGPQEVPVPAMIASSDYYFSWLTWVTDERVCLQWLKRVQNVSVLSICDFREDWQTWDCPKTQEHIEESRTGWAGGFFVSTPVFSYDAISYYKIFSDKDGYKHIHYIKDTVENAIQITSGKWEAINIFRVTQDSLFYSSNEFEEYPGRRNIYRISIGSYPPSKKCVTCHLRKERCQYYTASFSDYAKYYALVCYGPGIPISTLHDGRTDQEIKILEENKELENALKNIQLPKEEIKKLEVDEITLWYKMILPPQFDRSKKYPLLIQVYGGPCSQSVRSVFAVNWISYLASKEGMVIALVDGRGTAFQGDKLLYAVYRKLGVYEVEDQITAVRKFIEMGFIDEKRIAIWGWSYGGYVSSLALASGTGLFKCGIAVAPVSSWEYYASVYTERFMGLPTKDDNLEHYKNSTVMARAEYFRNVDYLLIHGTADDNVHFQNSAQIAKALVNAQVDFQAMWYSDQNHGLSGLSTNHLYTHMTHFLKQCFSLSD
Experimental: (§4) The Biacore SPR interaction study was conducted to determine the binding kinetics between the peptides and the immobilized human FAP protein (FAP-H5244, ACRO Biosystems) or murine FAP protein (FAP-M52H3, ACRO Biosystems) as target antigens. The final binding affinity, represented by the equilibrium dissociation degree (M) or KD, was calculated by examining the relationship between the binding rate constant (ka) (M^−1 s^−1) and the dissociation rate (kd) (s^−1).

[8] = biological target: T2, recombinant murine FAP protein (Mus musculus, UniProt P97321); assay: SPR binding to immobilized recombinant murine FAP protein
T2 construct: purchased ACRO Biosystems FAP-M52H3
T2 sequence (P97321 1-761): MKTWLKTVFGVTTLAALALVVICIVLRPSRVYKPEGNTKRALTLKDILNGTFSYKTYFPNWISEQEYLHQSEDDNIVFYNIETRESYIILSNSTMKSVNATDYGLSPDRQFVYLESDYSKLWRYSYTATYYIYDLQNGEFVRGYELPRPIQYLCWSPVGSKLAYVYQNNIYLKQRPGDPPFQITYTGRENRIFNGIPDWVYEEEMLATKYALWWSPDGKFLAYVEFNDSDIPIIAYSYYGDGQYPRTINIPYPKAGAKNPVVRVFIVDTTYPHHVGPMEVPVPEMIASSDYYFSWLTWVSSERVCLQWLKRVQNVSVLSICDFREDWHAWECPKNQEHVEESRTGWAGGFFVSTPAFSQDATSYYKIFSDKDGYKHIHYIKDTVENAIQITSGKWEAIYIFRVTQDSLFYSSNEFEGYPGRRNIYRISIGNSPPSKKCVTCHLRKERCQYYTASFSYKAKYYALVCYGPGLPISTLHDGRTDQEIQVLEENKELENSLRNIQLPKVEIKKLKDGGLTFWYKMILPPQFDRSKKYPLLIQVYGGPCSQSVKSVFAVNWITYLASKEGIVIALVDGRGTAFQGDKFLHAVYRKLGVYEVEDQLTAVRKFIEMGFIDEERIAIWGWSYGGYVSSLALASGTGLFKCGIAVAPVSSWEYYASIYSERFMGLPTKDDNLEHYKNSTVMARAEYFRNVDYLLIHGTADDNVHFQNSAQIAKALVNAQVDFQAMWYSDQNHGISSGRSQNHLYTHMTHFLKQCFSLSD
Experimental: as §4

Structure (SMILES)	tissue uptake at 4.5 h [1] [%ID/g]	tissue uptake at 4 h [2] [%ID/g]	tissue uptake at 4 h [3] [%ID/g]	tissue uptake at 0.5 h ([4]; 30 min) [%ID/g]	tissue uptake at 2 h ([4]; 2 h) [%ID/g]	tissue uptake at 4 h ([4]; 4 h) [%ID/g]	tissue uptake at 4.5 h [5] [%ID/g]	tissue uptake at 4 h [6] [%ID/g]	Kd [7] [nM]	Kd [8] [nM]
CCCCCC(=O)N[C@H]1CSCc2cc(CSCCNC(=O)[C@H](CCCCNC(=O)CCCc3ccc(I)cc3)NC(=O)CN3CCN(CC(=O)O)CCN(CC(=O)O)CCN(CC(=O)O)CC3)cc(c2)CSC[C@@H](C(=O)O)NC(=O)[C@H](Cc2ccccc2)NC(=O)[C@H](CCC(N)=O)NC(=O)[C@H]([C@@H](C)O)NC(=O)[C@@H]2CCCN2C(=O)[C@@H]2CCCN2C1=O [[^68Ga]Ga-DOTA-FD2, metal not drawn]	10.4 ± 1.84	7.67 ± 0.38	8.1 ± 0.52	6.63 ± 0.64	8.23 ± 2.61	9.37 ± 0.61	11.9 ± 1.83	6.9 ± 0.51		
CCCCCC(=O)N[C@H]1CSCc2cc(CSCCNC(=O)[C@H](CCCCNC(=O)CCCc3ccc(I)cc3)NC(=O)CN3CCN(CC(=O)O)CCN(CC(=O)O)CCN(CC(=O)O)CC3)cc(c2)CSC[C@@H](C(=O)O)NC(=O)[C@H](Cc2ccccc2)NC(=O)[C@H](CCC(N)=O)NC(=O)[C@H]([C@@H](C)O)NC(=O)[C@@H]2CCCN2C(=O)[C@@H]2CCCN2C1=O [FD2]									2.06	11.6
CCCCCC(=O)N[C@H]1CSCc2cc(CSCCNC(=O)[C@H](CCCCNC(=O)CCCc3ccc(I)cc3)NC(=O)[C@@H](NC(=O)[C@H](CCSC)NC(=O)CN3CCN(CC(=O)O)CCN(CC(=O)O)CCN(CC(=O)O)CC3)C(C)C)cc(c2)CSC[C@@H](C(=O)O)NC(=O)[C@H](Cc2ccccc2)NC(=O)[C@H](CCC(N)=O)NC(=O)[C@H]([C@@H](C)O)NC(=O)[C@@H]2CCCN2C(=O)[C@@H]2CCCN2C1=O [FD3]									6.25	13.7
CCCCCC(=O)N[C@H]1CSCc2cc(CSCCNC(=O)[C@H](CCCCN)NC(=O)[C@@H](NC(=O)[C@H](CCSC)NC(=O)CN3CCN(CC(=O)O)CCN(CC(=O)O)CCN(CC(=O)O)CC3)C(C)C)cc(c2)CSC[C@@H](C(=O)O)NC(=O)[C@H](Cc2ccccc2)NC(=O)[C@H](CCC(N)=O)NC(=O)[C@H]([C@@H](C)O)NC(=O)[C@@H]2CCCN2C(=O)[C@@H]2CCCN2C1=O [FD1]									3.3	10.2
